{
  "source": "patent US8143226B2",
  "about": "“Tyrosine kinase receptor antagonists and methods of treatment for breast cancer” (The Regents of the University of California, priority 2005, dated 2012)",
  "key": {"MCNeuA tumor cells": {"test_system": "MCNeuA tumor cells", "experiment": "Growth of MCNeuA tumors in neuTg mice", "format": "in vivo, mouse", "details": "combined oral 100 mg/kg and i.p. 37.5 mg/kg groups, from 21 days post-implantation", "excerpt": "All animal studies complied with protocols approved by of the Institutional Animal Care and Use Committee of the University of California, San Francisco. Our syngeneic model studies utilized the FVB/N-TgN(MMTVneu)202 mouse strain developed by Muller and colleagues (Guy CT, Webster MA, Schaller M, Parsons TJ, Cardiff RD, Muller WJ: Expression of the neu protooncogene in the mammary epithelium of transgenic mice induces metastatic disease. Proc Natl Acad Sci USA 89:10578-10582, 1992). This strain, denoted hereafter as neuTg, expresses the wild-type rat neu proto-oncogene (a homologue of human HER2) under the control of the mouse mammary tumor virus (MMTV) long terminal repeat (LTR) on an FVB mouse background. The MCNeuA mammary carcinoma cell line employed in these studies was derived from a spontaneously arising tumor in a neuTg female mouse (Campbell MJ, Wollish WS, Lobo […] LJ: Epithelial and fibroblast cell lines derived from a spontaneous mammary carcinoma in a MMTV/neu transgenic mouse. In Vitro Cell Dev Biol Anim 38:326-333, 2002). These cells are tumorigenic when transplanted back into neuTg mice. […] This solution was kept warm at 37° C. until given to mice by i.p. injection. […] Tumor growth was measured at the time of drug delivery on alternate treatment days with calipers and volume calculated using the equation: (length×width^2)*(π/6). […]"}, "[1]": {"biological_target": "T1, IGF-1R kinase domain peptide (Homo sapiens, UniProt P08069)", "T1 construct": "purchased Upstate, USA (Charlottesville, Va.)", "T1 sequence (P08069 989-1367)": "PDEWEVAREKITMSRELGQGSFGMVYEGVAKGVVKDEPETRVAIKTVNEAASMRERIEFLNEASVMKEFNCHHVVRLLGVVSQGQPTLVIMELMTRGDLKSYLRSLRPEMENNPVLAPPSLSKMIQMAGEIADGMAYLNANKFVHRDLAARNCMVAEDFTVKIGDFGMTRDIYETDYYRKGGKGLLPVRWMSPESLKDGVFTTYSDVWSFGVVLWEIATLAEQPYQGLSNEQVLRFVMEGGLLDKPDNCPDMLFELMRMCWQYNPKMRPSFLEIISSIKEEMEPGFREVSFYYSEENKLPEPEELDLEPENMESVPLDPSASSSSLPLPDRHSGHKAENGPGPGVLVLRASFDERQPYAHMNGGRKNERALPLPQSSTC", "experiment": "IGF-1R kinase domain peptide autophosphorylation (western blot)", "format": "biochemical", "details": "peptide incubated with NDGA prior to 20 μM ATP", "method": "ATP was then added at a final concentration of 20 μM. Autophosphorylation of peptide was allowed to occur for 20 min at 22° C. The reaction was stopped by the addition of SDS-reducing buffer, and the samples were run on SDS-PAGE. Following transfer to nitrocellulose membrane, peptide autophosphorylation was determined by western blotting employing an antibody against phosphotyrosine diluted to 0.5 μg/ml in phosphate buffered saline (PBS) containing 3% milk. The membrane was incubated with the antibody overnight at 4 C. Next, blots were washed 3 times with PBS, then incubated with HRP conjugated sheep anti-rabbit IgG (Amersham, Piscataway, N.J.) diluted 1:50,000 in PBS with 3% milk for 90 minutes at room temperature. After washing, blots were incubated with Super-Signal (Pierce, Rockford, Ill.), and exposed to film. Values were determined by scanning densitometry."}, "IGF-1": {"test_system": "IGF-1", "experiment": "IGF-1 activation in pancreatic cancer cells", "format": "cell-based"}, "[2]": {"details": "pure NDGA; cited from earlier work"}, "[3]": {"test_system": "Kelly human neuroblastoma cells", "method": "Briefly, 7×10^6 Kelly human neuroblastoma cells were resuspended in a 1:1 mixture of PBS and Matrigel (BD Clontech Inc.) and 100 μl of the mixture was injected subcutaneously into the flanks of 6-12 week-old BALB/c nude mice. […] Tumors were then harvested, weighed and measured. The formula width^2×length/2 was used to calculate tumor-volumes."}, "MCF-7/HER2-18 cells": {"test_system": "MCF-7/HER2-18 cells", "experiment": "Growth of MCF-7/HER2-18 cells with RTK inhibitors, 6 days (CyQuant)", "format": "cell-based, human", "details": "read-out: one half maximal effect on growth", "method": "MCF-7/neo or MCF-7/HER2-18 cells were plated in 96 well plates (4×10^3 cells/well) in 100 μl/well of DMEM-10 medium. […] Media with inhibitors was refreshed on day 3 and the cultures were harvested on day 6. The plates were inverted onto paper towels with gentle blotting to remove growth medium without disrupting adherent cells. Each plate was kept at −80° C. until assayed for cell growth. After thawing the plate at room temperature, 200 μl of CyQuant GR solution was added to each well and the plates were incubated in the dark for five minutes. Fluorescence was measured with a SpectraMax Gemini XS fluorescence microplate reader (Molecular Devices) with 480-nm excitation and 520-nm emission."}, "IGF-1R": {"biological_target": "IGF-1R (Homo sapiens, UniProt P08069)", "sequence (P08069 31-1367)": "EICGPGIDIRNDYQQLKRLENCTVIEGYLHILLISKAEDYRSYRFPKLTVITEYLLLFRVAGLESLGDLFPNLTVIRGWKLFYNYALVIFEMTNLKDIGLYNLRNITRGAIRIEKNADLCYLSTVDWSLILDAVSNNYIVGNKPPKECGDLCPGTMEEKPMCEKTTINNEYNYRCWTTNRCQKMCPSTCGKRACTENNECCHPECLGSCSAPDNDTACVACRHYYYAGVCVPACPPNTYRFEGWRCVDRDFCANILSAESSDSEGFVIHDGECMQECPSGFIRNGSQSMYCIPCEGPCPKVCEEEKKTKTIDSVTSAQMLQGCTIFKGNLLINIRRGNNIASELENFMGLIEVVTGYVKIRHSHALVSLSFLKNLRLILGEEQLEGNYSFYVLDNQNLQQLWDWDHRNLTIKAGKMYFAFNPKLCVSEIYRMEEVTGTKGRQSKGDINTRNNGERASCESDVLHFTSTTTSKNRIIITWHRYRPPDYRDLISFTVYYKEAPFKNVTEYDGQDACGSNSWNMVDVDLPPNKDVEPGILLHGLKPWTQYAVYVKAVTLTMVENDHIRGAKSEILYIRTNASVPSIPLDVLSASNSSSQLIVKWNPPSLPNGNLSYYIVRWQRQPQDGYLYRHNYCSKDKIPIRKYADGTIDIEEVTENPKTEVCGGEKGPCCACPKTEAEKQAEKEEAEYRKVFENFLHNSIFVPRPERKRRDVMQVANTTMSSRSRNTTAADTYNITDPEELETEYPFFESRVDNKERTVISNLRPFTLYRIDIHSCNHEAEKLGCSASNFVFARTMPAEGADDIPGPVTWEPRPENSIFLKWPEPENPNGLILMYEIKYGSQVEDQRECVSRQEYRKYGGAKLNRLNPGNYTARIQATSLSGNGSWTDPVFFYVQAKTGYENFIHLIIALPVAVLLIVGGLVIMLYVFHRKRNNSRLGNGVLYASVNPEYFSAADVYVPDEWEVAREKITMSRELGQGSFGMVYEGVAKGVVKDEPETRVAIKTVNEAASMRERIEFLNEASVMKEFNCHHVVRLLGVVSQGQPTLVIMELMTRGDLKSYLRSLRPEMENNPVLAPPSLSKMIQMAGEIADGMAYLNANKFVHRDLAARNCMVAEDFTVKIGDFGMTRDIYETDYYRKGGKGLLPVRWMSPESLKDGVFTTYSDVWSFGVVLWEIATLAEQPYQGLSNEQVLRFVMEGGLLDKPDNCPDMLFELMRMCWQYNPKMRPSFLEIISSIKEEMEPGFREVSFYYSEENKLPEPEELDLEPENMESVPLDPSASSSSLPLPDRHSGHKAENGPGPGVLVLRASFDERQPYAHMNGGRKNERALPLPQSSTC", "experiment": "Tyrosine kinase activity of partially purified IGF-1R on poly Glu4:Tyr1 (ELISA)", "format": "biochemical", "set-up": "made in house; host or cells: CHO cells (CHOIGF-1R / CHO-IGFR), partially purified by wheat germ agglutinin chromatography", "method": "IGF-1 and HER2/neu receptors were partially purified by WGA chromatography of cells overexpressing the protein of interest. To isolate IGF-1R, CHO cells transfected with and overexpressing the human IGF-1R (CHOIGF-1R) were plated in T-150 flasks and grown in DMEM supplemented with 10% fetal calf serum (FCS) until 80% confluent. Cells were harvested in the basal state and solubilized in 50 mM HEPES, 10% glycerol, 1% Triton X-100, 150 mM NaCl, 5 μM EGTA, 0.24 mg/ml aminoethyl-benzensulfonyl fluoride (AEBSF), 10 μg/ml aprotinin, 25 mM benzamidine, 10 μg soybean trypsin inhibitor, and 5 μg/ml leuptin for one hour at 4° C. Samples were centrifuged for 60 minutes at 100,000 g and solubilized extract collected. Rodent HER2/neu receptors were collected from MCNeuA cells crown under identical conditions and processed similarly. Lysates from both cell lines were loaded onto a 1 ml wheat germ agglutin (WGA) column (Pharmacia, Piscataway, N.J.), washed with WGA buffer (50 mM HEPES pH 7.6, 150 mM NaCl, 0.1% Triton X-100, 1 mg/ml bacitracin, and 1 mM PMSF). Receptors were then eluted with WGA buffer supplemented with 0.3 N N-Acetyl-D-glucosamine. WGA fractions containing RTK of interest were determined by SDS page and a western blot that employed antibodies against either the IGF-1R or HER2/neu as appropriate. […]"}},
  "note": "pIC50: −log10 of the molar value. Like-named read-outs stand apart in the source and are kept apart here.",
  "data": [
    {"smiles": "CC(Cc1ccc(O)c(O)c1)C(C)Cc1ccc(O)c(O)c1", "note": "(stereo not shown) [NDGA, nordihydroguaiaretic acid]", "values": [
      {"measurement": "tumor growth", "setting": "MCNeuA tumor cells", "value": "significantly reduced"},
      {"measurement": "concentration at which activation of the IGF-1R kinase domain was inhibited", "setting": "[1]", "value": 1, "unit": "µM"},
      {"measurement": "IGF-1 activation", "setting": "IGF-1", "value": "inhibiting"},
      {"measurement": "toxicity", "setting": "[2]", "value": "minimal toxicity"},
      {"measurement": "inhibition of tumor growth", "setting": "[3]; 50 mg/kg daily for 10 d, nude mice, Kelly xenografts", "value": 50, "unit": "%"},
      {"measurement": "tolerability in mice", "setting": "[3]; mouse, in vivo", "value": "very well tolerated"},
      {"measurement": "pIC50", "setting": "MCF-7/HER2-18 cells; Homo sapiens, 144 h", "value": 4.90},
      {"measurement": "pIC50", "setting": "MCF-7/HER2-18 cells", "value": "4.70 to 5.00"},
      {"measurement": "lowest concentration reducing IGF-1 stimulated tyrosine phosphorylation of poly Glu4:Tyr1", "setting": "IGF-1R; NDGA 20 minutes prior to 10 nM IGF-1", "value": 0.3, "unit": "µM"},
      {"measurement": "concentration inhibiting IGF-1-stimulated tyrosine kinase activity of isolated IGF-1R", "setting": "IGF-1R; summary statement", "value": "≤ 10", "unit": "µM"}
    ]}
  ]
}
